Laboratory results published in patent US20150374623A1, “DEAMORPHIZATION OF SPRAY-DRIED FORMULATIONS VIA SPRAY-BLENDING” (NOVARTIS AG, priority 2013, published 2015).
In brackets after ≈: the same amount, converted by molar mass. Structures can show the parent of a compound that is named as a salt. Where two headings read alike, the source gives them in different places.

Key:
[1] = Solubility of indacaterol maleate in water and in maleate buffer; format: physicochemical
Method: In Lot II, the concentration of indacaterol in Feedline A was 18% w/w and the concentration in the spray-blended bulk powder was just 4.1% w/w, as the remaining spray dried particles from Feedlines B and C contained no API.
Lot IV is formulated like Lot II except 20 mM sodium maleate (pH 5.5) was added to Feedline A. Sodium maleate was added to decrease the indacaterol solubility in water to about, 0.01 mg/ml (common ion effect). In this case, spray-blending reduced the dissolved indacaterol in the feedstock from about, 8.0% to 0.1%.
Estimated % Dissolved was calculated based on the feedstock compositions according to equation 1. The solubility of indacaterol in water is 0.2 mg/ml, and 0.01 mg/ml in 20 mM maleate buffer. The decreased solubility in maleate buffer is the result of the shift in the equilibrium towards precipitation of indacaterol maleate which occurs as a result of the addition of a common ion. The impact of spray-blending on the dissolved fraction is clearly evident by comparing Lots I and VI. In the spray-blended Lot I, the total drug loading is 1.4%, yet the dissolved fraction is just 4.9%. In contrast, for the single feedstock Lot VI, the drug content is actually higher (2%), yet the dissolved fraction is nearly 15%.

[2] = target: β2-adrenoceptor (Homo sapiens, UniProt P07550); conditions: cited from earlier work
Chain of β2-adrenoceptor (P07550 whole entry, species assumed): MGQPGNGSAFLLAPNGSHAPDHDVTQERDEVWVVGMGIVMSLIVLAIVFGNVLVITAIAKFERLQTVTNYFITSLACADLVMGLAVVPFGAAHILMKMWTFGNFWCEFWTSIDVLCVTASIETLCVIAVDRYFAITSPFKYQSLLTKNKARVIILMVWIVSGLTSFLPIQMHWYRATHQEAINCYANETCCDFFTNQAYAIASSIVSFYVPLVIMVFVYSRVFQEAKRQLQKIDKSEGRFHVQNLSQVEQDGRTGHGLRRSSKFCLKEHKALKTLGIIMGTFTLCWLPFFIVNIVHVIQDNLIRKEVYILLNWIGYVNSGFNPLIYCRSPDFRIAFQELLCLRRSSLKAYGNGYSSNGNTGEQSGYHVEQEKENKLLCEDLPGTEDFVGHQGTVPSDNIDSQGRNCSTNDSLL

solubility ([1]; water, read-out: solubility in water)	solubility in 20 mM maleate buffer ([1]; 20 mM sodium maleate (pH 5.5), common ion effect)	solubility ([1]; 20 mM sodium maleate buffer, pH 5.5, aqueous buffer, 20 mM sodium maleate (pH 5.5), common ion effect, read-out: solubility in 20 mM maleate buffer)	Structure (SMILES)	duration of action [2]	onset of action [2]
200 µg/mL	–	–	CCc1cc2c(cc1CC)CC(NC[C@H](O)c1ccc(O)c3[nH]c(=O)ccc13)C2 [indacaterol maleate, (R)-5-[2-(5,6-diethyl-indan-2-ylamino)-1-hydroxyethyl]-8-hydroxy-1H-quinolin-2-one]	–	–
–	10 µg/mL (≈ 25.5 µM)	~10 µg/mL (≈ 25.5 µM)	CCc1cc2c(cc1CC)CC(NC[C@H](O)c1ccc(O)c3[nH]c(=O)ccc13)C2 [indacaterol, (R)-5-[2-(5,6-diethyl-indan-2-ylamino)-1-hydroxyethyl]-8-hydroxy-1H-quinolin-2-one]	over 24 hours	about 10 minutes
